Experimental data as given in patent US11345711B2, “8,9-dihydroimidazo[1,2-a]pyrimido[5,4-e]pyrimidin-5(6H)-ones” (IMPACT THERAPEUTICS (SHANGHAI), INC, priority 2016, dated 2022).
pIC50: −log10 of the molar value. Read-outs that look alike come from different tables or passages of the source.

What was measured:
[1] = molecular target: Wee1 (h) (Homo sapiens, UniProt P30291); assay: Wee1 kinase (h) detection method, [γ-33P]-ATP filter assay; type: biochemical
[2] = test system: LoVo cells; assay: MTT based cell viability assay on LoVo cells; conditions: Homo sapiens, LoVo, 72 h, 3 d, read-out: IC50, growth inhibition of LoVo cells
Procedure, shortened: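 Inhibition of LoVo proliferation was derived as IC50 from a sigmoidal dose-response fit of cell survival. Readout was MTT (0.5 mg/mL, 4 h) with absorbance at 552/630/690 nm, after 3-day treatment at 37 °C. Eight-point series from 10 μM to 0.01 μM, DMSO control, 1% DMSO final.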

[3] = test system: NCI-H1299 cells; assay: MTT based cell viability assay on NCI-H1299 cells; conditions: Homo sapiens, read-out: IC50, growth inhibition of NCI-H1299 cells
Procedure, shortened: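 Viability read-out was MTT reduction (0.5 mg/mL, 4 h, absorbance 552/630/690 nm) after 3-day compound exposure at 37 °C of NCI-H1299 cells seeded at 1000 per well. Dilutions spanned 10 μM–0.01 μM in DMSO, final DMSO 1‰. Survival-versus-concentration curves were fitted sigmoidally to give IC50.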

[4] = test system: advanced solid tumors; conditions: cited from earlier work
[5] = AZD1775 alone or in combination with gemcitabine, cisplatin or carboplatin, 176 evaluable patients

Sequence of Wee1 (h) (P30291 whole entry): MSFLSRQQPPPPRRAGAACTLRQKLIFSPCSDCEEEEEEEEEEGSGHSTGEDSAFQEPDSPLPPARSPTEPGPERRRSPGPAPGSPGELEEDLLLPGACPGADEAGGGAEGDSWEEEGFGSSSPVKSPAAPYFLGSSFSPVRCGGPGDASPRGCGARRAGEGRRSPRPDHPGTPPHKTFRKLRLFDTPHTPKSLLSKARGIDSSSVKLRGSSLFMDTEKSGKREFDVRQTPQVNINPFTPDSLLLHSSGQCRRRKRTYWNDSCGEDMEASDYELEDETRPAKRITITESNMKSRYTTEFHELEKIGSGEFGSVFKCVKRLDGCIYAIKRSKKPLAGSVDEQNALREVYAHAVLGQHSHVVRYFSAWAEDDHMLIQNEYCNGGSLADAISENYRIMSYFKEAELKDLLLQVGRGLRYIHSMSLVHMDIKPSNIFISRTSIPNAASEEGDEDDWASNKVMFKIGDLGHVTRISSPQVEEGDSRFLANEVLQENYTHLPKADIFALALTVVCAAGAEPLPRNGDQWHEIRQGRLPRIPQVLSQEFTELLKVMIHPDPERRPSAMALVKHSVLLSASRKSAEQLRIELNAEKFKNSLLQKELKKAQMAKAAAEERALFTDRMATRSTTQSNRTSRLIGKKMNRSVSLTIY

Structure (SMILES) | Inh. (%) of Wee1 kinase enzyme activity ([1]; C 10 μm compound) [%] | pIC50 [2] | pIC50 ([3]; NCI-H1299, NCI-H1299 cells) | Inh. (%) of Wee1 kinase enzyme activity ([1]; C 0.01 μm compound) [%] | Inh. (%) of Wee1 kinase enzyme activity ([1]; C 0.1 μm compound) [%] | Inh. (%) of Wee1 kinase enzyme activity ([1]; C 1 μm compound) [%] | pIC50 ([3]; NCI-H1299 cells) | partial response [4, 5] [%] | stable disease as the best response [4, 5] [%] | response rate ([4]; TP53 wild-type patients (n=33)) [%] | safety and tolerability ([4]; alone or in combination with chemotherapy, at a certain dose) | response rate ([4]; patients with TP53 mutation (n=19)) [%]
CN1CCN(c2ccc(Nc3ncc4c(n3)N3CCN=C3N(c3c(F)cccc3Cl)C4=O)cc2F)CC1 [Example 44, 6-(2-Chloro-6-fluorophenyl)-2-((3-fluoro-4-(4-methylpiperazin-1-yl)phenyl)amino)-8,9-dihydroimidazo[1,2-a]pyrimido[5,4-e]pyrimidin-5(6H)-one] |  | 7.43 | 6.22 | 23 | 75 | 93 |  |  |  |  |  | 
O=C1c2cnc(Nc3ccc(N4CCNCC4)c(Cl)c3)nc2N2CCN=C2N1c1c(Cl)cccc1Cl [Example 176, 6-(2,6-Dichlorophenyl)-2-((3-chloro-4-(piperazin-1-yl)phenyl)amino)-8,9-dihydroimidazo[1,2-a]pyrimido[5,4-e]pyrimidin-5(6H)-one] |  | 7.13 |  |  |  | 96 | 6.90 |  |  |  |  | 
CN1CCN(c2c(Cl)cc(Nc3ncc4c(n3)N3CCN=C3N(c3c(Cl)cccc3Cl)C4=O)cc2C(F)(F)F)CC1 [Example 152, 6-(2,6-Dichlorophenyl)-2-((3-chloro-4-(4-methylpiperazin-1-yl)-5-(trifluoromethyl)phenyl)amino)-8,9-dihydroimidazo[1,2-a]pyrimido[5,4-e]pyrimidin-5(6H)-one] |  | 6.86 | 5.71 |  |  | 88 |  |  |  |  |  | 
CC(=O)N1Cc2cc(Nc3ncc4c(n3)N3CCN=C3N(c3c(F)cccc3Cl)C4=O)ccc2C2(CC2)C1 [Example 11, 6-(2-Chloro-6-fluorophenyl)-2-((2′-acetyl-2′,3′-dihydro-1′H-spiro[cyclopropane-1,4′-isoquinolin]-7′-yl)amino)-8,9-dihydroimidazo[1,2-a]pyrimido[5,4-e]pyrimidin-5(6H)-one] |  | 7.00 |  | 23 | 85 | 97 | 6.15 |  |  |  |  | 
Cc1cc(Nc2ncc3c(n2)N2CCN=C2N(c2c(F)cccc2Cl)C3=O)cc(C)c1N1CCN(C)CC1 [Example 56, 6-(2-Chloro-6-fluorophenyl)-2-((3,5-dimethyl-4-(4-methylpiperazin-1-yl)phenyl)amino)-8,9-dihydroimidazo[1,2-a]pyrimido[5,4-e]pyrimidin-5(6H)-one] |  | 7.33 | 6.50 | 14 | 80 | 90 |  |  |  |  |  | 
COc1cc(Nc2ncc3c(n2)N2CCN=C2N(c2c(F)cccc2Cl)C3=O)cc(Cl)c1N1CCN(C)CC1 [Example 126, 6-(2-Chloro-6-fluorophenyl)-2-((3-chloro-5-methoxy-4-(4-methylpiperazin-1-yl)phenyl)amino)-8,9-dihydroimidazo[1,2-a]pyrimido[5,4-e]pyrimidin-5(6H)-one] |  | 7.25 | 7.17 |  |  | 89 |  |  |  |  |  | 
Cc1cc(Nc2ncc3c(n2)N2CCN=C2N(c2c(Cl)cccc2Cl)C3=O)cc(Br)c1N1CCN(C)CC1 [Example 156, 6-(2,6-Dichlorophenyl)-2-((3-bromo-5-methyl-4-(4-methylpiperazin-1-yl)phenyl)amino)-8,9-dihydroimidazo[1,2-a]pyrimido[5,4-e]pyrimidin-5(6H)-one] |  | 7.20 | 6.82 | 19 | 81 | 96 |  |  |  |  |  | 
Cc1cccc(C)c1N1C(=O)c2cnc(Nc3ccc4c(c3)CN(C)CC4(C)C)nc2N2CCN=C21 [Example 16, 6-(2,6-Dimethylphenyl)-2-((2,4,4-trimethyl-1,2,3,4-tetrahydroisoquinolin-7-yl)amino)-8,9-dihydroimidazo[1,2-a]pyrimido[5,4-e]pyrimidin-5(6H)-one] |  | 5.32 |  | 15 | 59 | 98 | 6.21 |  |  |  |  | 
C[C@@H]1CN(c2ccc(Nc3ncc4c(n3)N3CCN=C3N(c3c(Cl)cccc3Cl)C4=O)cc2F)C[C@H](C)N1C [Example 70, 6-(2,6-Dichlorophenyl)-2-((3-fluoro-4-((3S,5R)-3,4,5-trimethylpiperazin-1-yl)phenyl)amino)-8,9-dihydroimidazo[1,2-a]pyrimido[5,4-e]pyrimidin-5(6H)-one] |  | 6.91 | 6.35 | 17 | 69 | 99 |  |  |  |  |  | 

More lines, main results first:

Inh. (%) of Wee1 kinase enzyme activity ([1]; C 10 μm compound) [%] | pIC50 [2] | pIC50 ([3]; NCI-H1299, NCI-H1299 cells) | Inh. (%) of Wee1 kinase enzyme activity ([1]; C 0.01 μm compound) [%] | Inh. (%) of Wee1 kinase enzyme activity ([1]; C 0.1 μm compound) [%] | Inh. (%) of Wee1 kinase enzyme activity ([1]; C 1 μm compound) [%] | pIC50 ([3]; NCI-H1299 cells) | Structure (SMILES) | partial response [4, 5] [%] | stable disease as the best response [4, 5] [%] | response rate ([4]; TP53 wild-type patients (n=33)) [%] | safety and tolerability ([4]; alone or in combination with chemotherapy, at a certain dose) | response rate ([4]; patients with TP53 mutation (n=19)) [%]
97 | 6.41 | 6.54 |  |  |  |  | C=CCn1c(=O)c2cnc(Nc3ccc(N4CCN(C)CC4)cc3)nc2n1-c1cccc(C(C)(C)O)n1 [AZD1775] | 10 | 53 | 12 | safe and tolerable | 21
 | 6.46 |  | 38 | 93 | 97 | 6.33 | C[C@@H]1CN(c2ccc(Nc3ncc4c(n3)N3CCN=C3N(c3c(F)cccc3Cl)C4=O)cc2)C[C@H](C)N1C [Example 34, 6-(2-Chloro-6-fluorophenyl)-2-((4-((3S,5R)-3,4,5-trimethylpiperazin-1-yl)phenyl)amino)-8,9-dihydroimidazo[1,2-a]pyrimido[5,4-e]pyrimidin-5(6H)-one] |  |  |  |  | 
 | < 4.00 |  |  |  | 17 | < 5.00 | CN1CCN(c2ccc(Nc3ncc4c(n3)N3CC(C)(C)N=C3N(c3c(F)cccc3Cl)C4=O)cc2)CC1 [Example 27, 6-(2-Chloro-6-fluorophenyl)-8,8-dimethyl-2-((4-(4-methylpiperazin-1-yl)phenyl)amino)-8,9-dihydroimidazo[1,2-a]pyrimido[5,4-e]pyrimidin-5(6H)-one] |  |  |  |  | 
 | 6.98 | 6.37 | 24 | 73 | 97 |  | CN1CCN(c2ccc(Nc3ncc4c(n3)N3CCN=C3N(c3c(Cl)cccc3Cl)C4=O)cc2F)CC1 [Example 69, 6-(2,6-Dichlorophenyl)-2-((3-fluoro-4-(4-methylpiperazin-1-yl)phenyl)amino)-8,9-dihydroimidazo[1,2-a]pyrimido[5,4-e]pyrimidin-5(6H)-one] |  |  |  |  | 
 | 5.84 |  | 31 | 84 | 96 | 5.90 | CC(=O)N1CCN(c2ccc(Nc3ncc4c(n3)N3CCN=C3N(c3c(F)cccc3Cl)C4=O)cc2)CC1 [Example 7, 2-((4-(4-Acetylpiperazin-1-yl)phenyl)amino)-6-(2-chloro-6-fluorophenyl)-8,9-dihydroimidazo[1,2-a]pyrimido[5,4-e]pyrimidin-5(6H)-one] |  |  |  |  | 
 | < 4.00 |  |  |  | 9 | < 5.00 | CN1CCN(c2ccc(Nc3ncc4c(n3)N3CCN=C3N(C3CC3)C4=O)cc2)CC1 [Example 20, 6-Cyclopropyl-2-((4-(4-methylpiperazin-1-yl)phenyl)amino)-8,9-dihydroimidazo[1,2-a]pyrimido[5,4-e]pyrimidin-5(6H)-one] |  |  |  |  | 
